According to patent publication US9963467B2, “Boronic acid derivatives and therapeutic uses thereof” (Rempex Pharmaceuticals, Inc., priority 2014, dated 2018):

What was measured:
KP1005 (CTX-M-14) [1] = assay: Aztreonam potentiation (MPC@4), KP1005; type: cell-based; conditions: BLI with aztreonam at 4 μg/mL
ec302 (TEM-10) [2] = assay: Aztreonam potentiation (MPC@4), ec302; type: cell-based; conditions: BLI with aztreonam at 4 μg/mL
KP1004 (KPC-2) [3] = assay: Aztreonam potentiation (MPC@4), KP1004; type: cell-based; conditions: BLI with aztreonam at 4 μg/mL
ECL1002 [4] = assay: Aztreonam potentiation (MPC@4), ECL1002; type: cell-based; conditions: BLI with aztreonam at 4 μg/mL
EC1010 (CMY-6) [5] = assay: organism not typed; type: cell-based
KP1005 (CTX-M-14) [6] = assay: Tigemonam potentiation (MPC@4), KP1005; type: cell-based; conditions: BLI with tigemonam at 4 μg/mL
KP1009 (CTX-M-15) [7] = assay: Tigemonam potentiation (MPC@4), KP1009; type: cell-based; conditions: BLI with tigemonam at 4 μg/mL
ec308 (SHV-5) [8] = assay: Tigemonam potentiation (MPC@4), ec308; type: cell-based
KP1010 (SHV-12) [9] = assay: Tigemonam potentiation (MPC@4), KP1010; type: cell-based
ec302 (TEM-10) [10] = assay: Tigemonam potentiation (MPC@4), ec302; type: cell-based
ECL1002 [11] = assay: Tigemonam potentiation (MPC@4), ECL1002; type: cell-based; conditions: BLI with tigemonam at 4 μg/mL
EC1010 (CMY-6) [12] = assay: Tigemonam potentiation (MPC@4), EC1010; type: cell-based; conditions: BLI with tigemonam at 4 μg/mL
CTX-M-14 = CTX-M-14 (Escherichia coli, UniProt Q9L5C7); assay: Ki, nitrocefin cleavage by purified enzyme, CTX-M-14; type: biochemical; conditions: nitrocefin reporter substrate; read-out: Ki (CTX-M-14, NCF)
How it was run: (§1)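 Readout: nitrocefin hydrolysis, A490 recorded every 10 sec over 10 min. Enzyme and inhibitor (varied concentrations) preincubated 10 min, RT, in reaction buffer before substrate addition.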

SHV-12 = SHV-12 (Klebsiella pneumoniae, UniProt P0AD64, E235K/G234S/L31Q); assay: Ki, nitrocefin cleavage by purified enzyme, SHV-12; type: biochemical; conditions: nitrocefin reporter substrate; read-out: Ki (SHV-12, NCF)
How it was run: as §1

KPC-2 = KPC-2 (Klebsiella pneumoniae, UniProt Q9F663); assay: Ki, nitrocefin cleavage by purified enzyme, KPC-2; type: biochemical; conditions: nitrocefin reporter substrate; read-out: Ki (KPC-2, NCF)
How it was run: as §1

P99 = P99 (Enterobacter cloacae, UniProt P05364); assay: Ki, nitrocefin cleavage by purified enzyme, P99; type: biochemical; conditions: nitrocefin reporter substrate; read-out: Ki (P99, NCF)
How it was run: as §1

Pa AmpC = Pa AmpC (Pseudomonas aeruginosa, UniProt P24735); assay: Ki, nitrocefin cleavage by purified enzyme, Pa AmpC; type: biochemical; conditions: nitrocefin reporter substrate; read-out: Ki (Pa AmpC, NCF)
How it was run: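 Ki values were determined with nitrocefin as the reporter substrate. Purified enzymes were incubated with several inhibitor concentrations for 10 min at room temperature before substrate addition, and cleavage was monitored at 490 nm for 10 min.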

OXA-48 = OXA-48 (Klebsiella pneumoniae, UniProt Q6XEC0); assay: Ki, nitrocefin cleavage by purified enzyme, OXA-48; type: biochemical; conditions: nitrocefin reporter substrate; read-out: Ki (OXA-48, NCF)
How it was run: as §1

[13] = Intravenous pharmacokinetics; type: in vivo; conditions: rat, plasma; rats, 20 mg/kg, intravenous infusion over 0.5 hours; read-out: Free Cl (converted)
Procedure: Rats (n=3 per compound) were administered by a single infusion. Intravenous doses were infused over 0.5 hours via an indwelling femoral vein cannula. […] (˜0.3 mL) samples were collected from each rat at designated time points up to 24 hours. Blood samples were centrifuged within 5 min of collection at 12000 g for 5 min to obtain plasma. The plasma samples were stored at −80° C. until analyzed. Data were analyzed using WinNonlin. The doses of all compounds tested were 20 mg/kg.

[14] = Monomer content of pH adjusted aqueous solutions (LC-UV); type: physicochemical; conditions: 1 mg/mL aqueous salt solution, pH adjusted to 7.6 to 8, LC-UV
How it was run: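 Aqueous solutions at 1.00, 10.0 or 100 mg/mL (active fraction) brought to pH 7.6–8 with acid or base, compound fully dissolved. Injected within half an hour of preparation onto C18 reversed-phase LC (0.1% TFA water / 0.085% TFA methanol gradient); UV detection at 220, 254 and 300 nm.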

KP1004 (KPC-2) [15] = assay: Biapenem potentiation (MPC@1), KP1004; conditions: BLI with biapenem at 1 μg/mL
KP1086 (OXA-48) = assay: Biapenem potentiation (MPC@1), KP1086; conditions: BLI with biapenem at 1 μg/mL
KP1009 (CTX-M-15) [16] = assay: organism not typed; type: cell-based
ec308 (SHV-5) [17] = assay: Aztreonam potentiation (MPC@4), ec308; type: cell-based; conditions: BLI with aztreonam at 4 μg/mL
KP1010 (SHV-12) [18] = assay: Aztreonam potentiation (MPC@4), KP1010; type: cell-based
PAM1032/KPC-2 = assay: Biapenem potentiation MPC64, PAM1032/KPC-2 (efflux proficient); type: cell-based, Pseudomonas aeruginosa; conditions: BLI to decrease MIC of biapenem 64-fold; MexAB-OprM overexpressed
Procedure: (§2) Efflux of BLIs from Pseudomonas aeruginosa by the MexAB-OprM efflux pump was also evaluated. […] Due to expression of KPC-2 both strains became resistant to biapenem. […] Potency of BLIs to potentiate biapenem in these strains was determined. […] The ratio of MPC64 values for each BLI in PAM1032/KPC-2 (efflux proficient) and PAM1154/KPC-2 (efflux deficient) was determined to generate the Efflux Index (EI).

PAM1154/KPC-2 = assay: Biapenem potentiation MPC64, PAM1154/KPC-2 (efflux deficient); type: cell-based, Pseudomonas aeruginosa; conditions: BLI to decrease MIC of biapenem 64-fold; lacking MexAB-OprM
Procedure: as §2

Chain of OXA-48 (Q6XEC0 23-265, looked up, species assumed): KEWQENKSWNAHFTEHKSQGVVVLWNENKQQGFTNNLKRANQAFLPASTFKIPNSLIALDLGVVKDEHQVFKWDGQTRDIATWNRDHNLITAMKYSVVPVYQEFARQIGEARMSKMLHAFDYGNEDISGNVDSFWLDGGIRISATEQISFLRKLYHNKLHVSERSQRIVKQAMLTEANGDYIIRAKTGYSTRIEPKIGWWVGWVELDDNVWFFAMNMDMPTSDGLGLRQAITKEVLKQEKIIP
Chain of P99 (P05364 21-381): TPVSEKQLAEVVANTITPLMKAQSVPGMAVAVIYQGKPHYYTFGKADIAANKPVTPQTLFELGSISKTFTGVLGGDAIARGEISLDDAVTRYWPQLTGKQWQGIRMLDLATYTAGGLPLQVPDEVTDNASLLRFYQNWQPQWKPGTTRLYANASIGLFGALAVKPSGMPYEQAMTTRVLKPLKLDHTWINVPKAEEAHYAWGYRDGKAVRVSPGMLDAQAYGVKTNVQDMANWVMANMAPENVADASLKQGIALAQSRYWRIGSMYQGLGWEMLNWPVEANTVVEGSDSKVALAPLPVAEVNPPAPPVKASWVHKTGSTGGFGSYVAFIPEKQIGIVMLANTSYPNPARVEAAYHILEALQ
Chain of SHV-12 (P0AD64 22-286 L31Q/G234S/E235K): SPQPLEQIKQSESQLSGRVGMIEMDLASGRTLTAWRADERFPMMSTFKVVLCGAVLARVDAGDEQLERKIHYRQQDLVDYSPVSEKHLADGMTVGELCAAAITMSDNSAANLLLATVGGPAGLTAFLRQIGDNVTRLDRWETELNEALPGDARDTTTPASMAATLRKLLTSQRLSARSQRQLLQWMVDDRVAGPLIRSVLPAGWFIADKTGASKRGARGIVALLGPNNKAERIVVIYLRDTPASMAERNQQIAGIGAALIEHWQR
Chain of KPC-2 (Q9F663 25-293, looked up, species assumed): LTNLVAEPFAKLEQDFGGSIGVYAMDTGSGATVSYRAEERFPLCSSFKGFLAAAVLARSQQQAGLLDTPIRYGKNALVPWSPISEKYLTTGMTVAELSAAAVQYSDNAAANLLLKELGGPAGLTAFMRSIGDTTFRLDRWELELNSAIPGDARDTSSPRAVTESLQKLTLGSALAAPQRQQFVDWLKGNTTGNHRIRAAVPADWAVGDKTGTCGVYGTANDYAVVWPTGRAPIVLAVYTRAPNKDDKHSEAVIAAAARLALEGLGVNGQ
Chain of Pa AmpC (P24735 27-397): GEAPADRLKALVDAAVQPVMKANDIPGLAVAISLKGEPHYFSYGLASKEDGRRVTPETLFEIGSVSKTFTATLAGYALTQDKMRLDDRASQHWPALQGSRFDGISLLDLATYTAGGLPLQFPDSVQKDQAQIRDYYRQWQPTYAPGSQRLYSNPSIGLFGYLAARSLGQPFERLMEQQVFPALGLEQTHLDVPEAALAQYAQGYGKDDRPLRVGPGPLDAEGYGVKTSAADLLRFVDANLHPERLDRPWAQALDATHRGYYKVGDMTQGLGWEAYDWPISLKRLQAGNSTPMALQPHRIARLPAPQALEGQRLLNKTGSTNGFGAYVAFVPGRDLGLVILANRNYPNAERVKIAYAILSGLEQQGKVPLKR
Chain of CTX-M-14 (Q9L5C7 29-291): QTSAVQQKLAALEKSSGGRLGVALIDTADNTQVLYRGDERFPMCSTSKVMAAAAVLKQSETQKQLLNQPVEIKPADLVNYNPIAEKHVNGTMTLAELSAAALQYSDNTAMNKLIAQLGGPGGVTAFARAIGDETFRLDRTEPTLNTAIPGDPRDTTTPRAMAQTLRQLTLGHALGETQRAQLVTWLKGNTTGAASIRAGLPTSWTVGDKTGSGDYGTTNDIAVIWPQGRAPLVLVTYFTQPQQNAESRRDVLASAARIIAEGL

| Compound | AZT MPC4 CTX-M-14 KP1005 (KP1005 (CTX-M-14) [1]) | AZT MPC4 TEM-10 ec302 (ec302 (TEM-10) [2]) | AZT MPC4 ECL1002 (ECL1002 [4]) | AZT MPC4 CMY-6 EC1010 (EC1010 (CMY-6) [5]) | TIG MPC4 CTX-M-14 KP1005 (KP1005 (CTX-M-14) [6]) | TIG MPC4 CTX-M-15 KP1009 (KP1009 (CTX-M-15) [7]) | TIG MPC4 SHV-5 ec308 (ec308 (SHV-5) [8]) | TIG MPC4 SHV-12 KP1010 (KP1010 (SHV-12) [9]) | TIG MPC4 TEM-10 ec302 (ec302 (TEM-10) [10]) | TIG MPC4 ECL1002 (ECL1002 [11]) | Ki (OXA-48) [nM] | clearance [13] [mL/min/kg] | BPM MPC1 KP1004 KPC-2 (KP1004 (KPC-2) [15]) | BPM MPC1 OXA-48 KP1086 (KP1086 (OXA-48)) | AZT MPC4 CTX-M-15 KP1009 (KP1009 (CTX-M-15) [16]) | AZT MPC4 SHV-5 ec308 (ec308 (SHV-5) [17]) | AZT MPC4 SHV-12 KP1010 (KP1010 (SHV-12) [18]) | PAM1032/KPC-2 Biapenem MPC64 (PAM1032/KPC-2) | further results |
| --- | --- | --- | --- | --- | --- | --- | --- | --- | --- | --- | --- | --- | --- | --- | --- | --- | --- | --- | --- |
| O=C(CSC(F)F)N[C@H]1Cc2ccc(F)c(C(=O)O)c2OB1O [Compound 3, (R)-3-(2-(difluoromethylthio)acetamido)-7-fluoro-2-hydroxy-3,4-dihydro-2H-benzo[e][1,2]oxaborinine-8-carboxylic acid] | Y (MIC of 1 μg/mL to 10 μg/mL) | X (MIC of less than 1 ng/mL) | Y (MIC of 1 μg/mL to 10 μg/mL) | Y (key: X: MIC of less than 1 ng/mL; Y: MIC of 1 μg/mL to 10 μg/mL; Z: MIC of greater than 10 μg/mL) | X (MIC of less than 1 μg/mL) | X (MIC of less than 1 μg/mL) | X (key: X: MIC of less than 1 μg/mL; Y: MIC of 1 μg/mL to 10 μg/mL; Z: MIC of greater than 10 μg/mL) | X (key: X: MIC of less than 1 μg/mL; Y: MIC of 1 μg/mL to 10 μg/mL; Z: MIC of greater than 10 μg/mL) | Y (key: X: MIC of less than 1 ng/mL; Y: MIC of 1 μg/mL to 10 μg/mL; Z: MIC of greater than 10 μg/mL) | Y (MIC of 1 μg/mL to 10 μg/mL) | 1 to 10 | 13 | X (MIC of less than 1 μg/mL) | Z (MIC of greater than 10 μg/mL) | – | – | – | – | AZT MPC4 KPC-2 KP1004 (KP1004 (KPC-2) [3]): Y (MIC of 1 μg/mL to 10 μg/mL); TIG MPC4 CMY-6 EC1010 (EC1010 (CMY-6) [12]): X (MIC of less than 1 μg/mL); Ki (CTX-M-14): < 1 nM; Ki (SHV-12): < 1 nM; Ki (KPC-2): > 10 nM; Ki (P99): > 10 nM; Ki (Pa AmpC): > 10 nM; % Monomer in 1 mg/mL salt solution [14]: 99.8% |
| O=C(Cc1cccs1)N[C@H]1Cc2cccc(C(=O)O)c2OB1O [I, reference compound] | – | – | – | Y (key: X: MIC of less than 1 ng/mL; Y: MIC of 1 μg/mL to 10 μg/mL; Z: MIC of greater than 10 μg/mL) | Y (MIC of 1 μg/mL to 10 μg/mL) | Y (MIC of 1 μg/mL to 10 μg/mL) | X (key: X: MIC of less than 1 μg/mL; Y: MIC of 1 μg/mL to 10 μg/mL; Z: MIC of greater than 10 μg/mL) | X (key: X: MIC of less than 1 μg/mL; Y: MIC of 1 μg/mL to 10 μg/mL; Z: MIC of greater than 10 μg/mL) | Z (key: X: MIC of less than 1 ng/mL; Y: MIC of 1 μg/mL to 10 μg/mL; Z: MIC of greater than 10 μg/mL) | X (MIC of less than 1 μg/mL) | – | 136 | X (MIC of less than 1 μg/mL) | Y (MIC of 1 μg/mL to 10 μg/mL) | Y (key: X: MIC of less than 1 ng/mL; Y: MIC of 1 μg/mL to 10 μg/mL; Z: MIC of greater than 10 μg/mL) | X (MIC of less than 1 ng/mL) | X (key: X: MIC of less than 1 ng/mL; Y: MIC of 1 μg/mL to 10 μg/mL; Z: MIC of greater than 10 μg/mL) | 80 | – |
| O=CN[C@H]1Cc2cccc(C(=O)O)c2OB1O [F, reference compound] | Y (MIC of 1 μg/mL to 10 μg/mL) | Z (MIC of greater than 10 μg/mL) | Y (MIC of 1 μg/mL to 10 μg/mL) | Y (key: X: MIC of less than 1 ng/mL; Y: MIC of 1 μg/mL to 10 μg/mL; Z: MIC of greater than 10 μg/mL) | Y (MIC of 1 μg/mL to 10 μg/mL) | Y (MIC of 1 μg/mL to 10 μg/mL) | Y (key: X: MIC of less than 1 ng/mL; Y: MIC of 1 μg/mL to 10 μg/mL; Z: MIC of greater than 10 μg/mL) | Y (key: X: MIC of less than 1 ng/mL; Y: MIC of 1 μg/mL to 10 μg/mL; Z: MIC of greater than 10 μg/mL) | Z (key: X: MIC of less than 1 ng/mL; Y: MIC of 1 μg/mL to 10 μg/mL; Z: MIC of greater than 10 μg/mL) | X (MIC of less than 1 μg/mL) | < 1 | – | X (MIC of less than 1 μg/mL) | Y (MIC of 1 μg/mL to 10 μg/mL) | Y (key: X: MIC of less than 1 ng/mL; Y: MIC of 1 μg/mL to 10 μg/mL; Z: MIC of greater than 10 μg/mL) | Y (MIC of 1 μg/mL to 10 μg/mL) | Y (key: X: MIC of less than 1 ng/mL; Y: MIC of 1 μg/mL to 10 μg/mL; Z: MIC of greater than 10 μg/mL) | 5 | PAM1154/KPC-2 Biapenem MPC64 (PAM1154/KPC-2): 1.25 |
